Laboratory results taken from patent US20240092831A1, “Proteasome Inhibitors” (Mayo Foundation for Medical Education and Research, priority 2019, published 2024).
Like-named read-outs stand apart in the source and are kept apart here. Each block holds one molecule with its values, some of them ahead of it. Non-standard residues stand in square brackets, D forms with d. Residues, ends and D or L forms follow the SMILES beside them. ξ: configuration not given here. *: point of attachment. Hydrocinnamoyl = O=C(CCc1ccccc1)*; ξF = NC(Cc1ccccc1)C(=O)O; Cbz = O=C(OCc1ccccc1)*

Legend:
[1] = system: bortezomib sensitive cells; assay: Cell viability (MTS/CellTiter Glo), bortezomib sensitive multiple myeloma cells; format: cell-based
Procedure: (§1) Methods: CD138+ cells from multiple myeloma patients, bortezomib-sensitive multiple myeloma cell lines (OPM2, KMS11 and U266) and their isogenic bortezomib resistant subclones were used in experiments. Fluorogenic peptide substrates were used to measure β-subunit-specific enzymatic activity. Gene disruption was conducted using 2 different shRNA hairpins for PSMB5 (β5) and PSMB9 ([…]). […] HT12v4 gene expression array and NanoString mRNA quantification were used for gene expression profiling (GEP), followed by qPCR for confirmation. Novel dual β5-β1i proteasome inhibitors were synthesized and tested in vitro. Apoptosis was determined by annexin-V/[…] staining and MTS/CellTiter Glo assay used to determine cell viability.

[2] = system: bortezomib resistant cells; assay: Cell viability (MTS/CellTiter Glo), bortezomib resistant multiple myeloma cells; format: cell-based
Procedure: as §1

[3] = system: β5; assay: Proteasome β5 enzyme activity in WM cell lines (fluorogenic substrate); format: cell-based; conditions: comparator
Procedure: (§2) Methodology: BWCM.1, MWCL-1 and RPCI-WM1 and isogenic PI-resistant subclones were used in experiments. WM cell viability determined by 72 hour CellTiter Glo assay. Proteasome enzyme activity was estimated by fluorogenic substrates specific for β5 and β1. Protein expression was determined by western blotting. Apoptosis was assessed by annexin-V/PI staining.
Results: Chemical compounds capable of inhibiting enzymatic activity of both β5 and β1 were prepared. […] (FIGS. 2B, 2C). […] In vitro proteasome enzyme activity at the β5 and β1 subunits was examined in all WM cell lines +/−Compound 1 (with bortezomib serving as a comparator).

[4] = target: T1, β1 (Homo sapiens, UniProt P28065); assay: Proteasome β1 enzyme activity in WM cell lines (fluorogenic substrate); format: cell-based; conditions: comparator
T1 construct: In vitro proteasome enzyme activity at the β5 and β1 subunits was examined in all WM cell lines +/−Compound 1; endogenous in cells; host or cells: BWCM.1 (BCWM.1), MWCL-1, RPCI-WM1 and isogenic bortezomib/PI-resistant subclones
Procedure: as §2

[5] = system: BCWM.1; assay: MTS assay, BCWM.1; format: cell-based; conditions: BCWM1
[6] = system: BCWM.1/BR; assay: MTS assay, BCWM.1/BR; format: cell-based; conditions: BCWM1, bortezomib-resistant subclone
[7] = system: MWCL.1; assay: MTS assay, MWCL.1; format: cell-based
[8] = system: MWCL.1/BR; assay: MTS assay, MWCL.1/BR; format: cell-based; conditions: bortezomib-resistant subclone
[9] = system: RPCI.WM1; assay: MTS assay, RPCI.WM1; format: cell-based
[10] = system: RPCI.WM1/BR; assay: MTS assay, RPCI.WM1/BR; format: cell-based; conditions: bortezomib-resistant subclone
[11] = target: T2, B1i (Homo sapiens, UniProt P28065); assay: In vitro enzymatic potency of dual-β5/β1i inhibitors (Table 2); format: biochemical
T2 construct: endogenous in cells; host or cells: OPM2 and OPM2/BR multiple myeloma cell lines
Procedure: as §1
The results were shown for multiple myeloma cell lines (OPM2, OPM2/BR).

Compound: CC(C)C[C@H](NC(=O)[C@H](Cc1ccccc1)NC(=O)c1cnccn1)B(O)O [Bortezomib, bortezomib]
- IC50 [1]: 4 nM
- IC50 ([2]; bortezomib resistant cells, before PSMB9 downregulation, read-out: IC50 (shift from)): 235 nM
- IC50 ([2]; bortezomib resistant cells, read-out: Bortezomib IC50): 284 nM
- IC50 ([2]; bortezomib resistant-PSMB9 shRNA transfected cells, read-out: IC50 (shift to)): 108 nM
- effect on β5 enzymatic function [3]: only β5 enzymatic function
- effect on β1 activity [4]: did not decrease β1 activity
- IC50 [5]: 8.6 nM
- IC50 [6]: 17.6 nM
- IC50 [7]: 10.2 nM
- IC50 [8]: 16.7 nM
- IC50 [9]: 3 nM
- IC50 [10]: 114 nM

Compound: O=CC(Cc1ccccc1)NC(=O)[C@H](Cc1ccccc1)NC(=O)OCc1ccccc1 (stereo partly drawn) [Compound 7-2] (Cbz-Phe-[ξF]-aldehyde)
- IC50 ([11]; first column of Table 2): 5000 nM
- IC50 ([11]; second column of Table 2): 5000 nM

Compound: CCOC(=O)/C(C#N)=C/C(Cc1ccccc1)NC(=O)[C@@H](NC(=O)OCc1ccccc1)C(C)C (stereo partly shown) [Compound 15-2]
- IC50 ([11]; first column of Table 2): > 10000 nM
- IC50 ([11]; second column of Table 2): 5000 nM

More lines, now with the values ahead:

- IC50 ([11]; first column of Table 2): 1000 nM
- IC50 ([11]; second column of Table 2): 5000 nM
Compound: CC(C)[C@H](NC(=O)CCc1ccccc1)C(=O)NC(C=O)Cc1ccccc1 (stereo partly shown) [Compound 1-2] (Hydrocinnamoyl-Val-[ξF]-aldehyde)

- IC50 ([11]; first column of Table 2): 1000 nM
- IC50 ([11]; second column of Table 2): 5000 nM
Compound: CC(C)C[C@H](NC(=O)OCc1ccccc1)C(=O)NC(C=O)Cc1ccccc1 (stereo partly drawn) [Compound 6-2] (Cbz-Leu-[ξF]-aldehyde)

- IC50 ([11]; first column of Table 2): 5000 nM
- IC50 ([11]; second column of Table 2): 5000 nM
Compound: CC(C)[C@H](NC(=O)c1ccncc1)C(=O)NC(C=O)Cc1ccccc1 (stereo partly shown) [Compound 12-2]
